Data taken from patent publication US11414402B2, “Sulfonamide-substituted cyanopyrrolidines with activity as DUB inhibitors” (MISSION THERAPEUTICS LIMITED, priority 2017, dated 2022).

Assays:
USP30 = USP30 (Homo sapiens (Human), UniProt Q70CQ3); experiment: USP30 biochemical IC50 assay (fluorescence polarisation); conditions: USP30 CD (57-517); 30 min preincubation at room temp; TAMRA-peptide-ubiquitin substrate 50 nM; read after 2-hour incubation; read-out: IC50 range
Protocol: (§1) A typical 8-point dilution series would be 100, 30, 10, 3, 1, 0.3, 0.1, 0.03 μM final. […] Either 1 μl of 50% DMSO or diluted compound was added to the plate. USP30 was diluted in reaction buffer (40 mM Tris, pH 7.5, 0.005% Tween 20, 0.5 mg/ml BSA, 5 mM beta-mercaptoethanol) to the equivalent of 0.05 μl/well and 10 μl of diluted USP30 was added to the compound. Enzyme and compound were incubated for 30 min at room temp. Reactions were initiated by the addition of 50 nM of TAMRA labelled peptide linked to ubiquitin via an iso-peptide bond as fluorescence polarisation substrate. Reactions were read immediately after addition of substrate and following a 2-hour incubation at room temperature. Readings were performed on a Pherastar Plus (BMG Labtech). λ Excitation 540 nm; λ Emission 590 nm.

UCHL1 = UCHL1 (Homo sapiens (Human), UniProt P09936); experiment: UCHL1 biochemical IC50 assay (fluorescence polarisation); conditions: FLAG-UCHL1; 30 min preincubation at room temp; TAMRA-peptide-ubiquitin substrate 50 nM; read after 2-hour incubation; read-out: IC50 range
Protocol: The UCHL1 construct was PCR amplified and cloned into a pFLAG-CMV-6a vector (Sigma-Aldrich) with an N-terminal FLAG tag. HEK293T cells were transfected with FLAG-UCHL1 using TransIT-LT1 transfection reagent (Mirus) according to the manufacturer's instructions. Cells were harvested 40 hours after transfection. […] The resin was washed two times with low salt buffer and one time with high salt buffer (20 mM Tris, pH 7.5, 500 mM NaCl, 0.5 mM EDTA, 5 mM beta-mercaptoethanol, protease inhibitors (complete mini, Roche) and phosphatase inhibitors (PhosSTOP mini, Roche). To elute the bound UCHL1, elution buffer (10 mM Tris, pH 7.5, 150 mM NaCl, 0.5 mM EDTA, 10% glycerol, 0.5% NP40, 5 mM beta-mercaptoethanol, 0.15 mg/ml 3× FLAG peptide (Sigma-Aldrich)) was added to the resin and incubated at 4° C. for 2.5 hours rotating. The resin was centrifuged at 4000 rpm for 30 seconds, and the supernatant containing purified FLAG-UCHL1 was removed and stored at −80° C.
UCHL1 was diluted in reaction buffer (20 mM Tris, pH 7.5, 100 mM NaCl, 0.05% Tween 20, 0.5 mg/ml BSA, 5 mM beta-mercaptoethanol) to the equivalent of 0, 0.01, 0.05, 0.1, 0.5, and 1 μl/well. Buffer was optimised for optimal temperature, pH, reducing agent, salts, time of incubation, and detergent. Reactions were initiated by the addition of 50 nM of TAMRA labelled peptide linked to ubiquitin via an iso-peptide bond as fluorescence polarisation substrate. Reactions were incubated at room temperature and read every 2 min for 120 min. Readings were performed on a Pherastar Plus (BMG Labtech). λ Excitation 540 nm; λ Emission 590 nm.
as §1, with “to” for “would”, “be” for “be 100,”, “0.03, 0.01” for “0.03”, “UCHL1” for “USP30”, “(20” for “(40”, “100 mM NaCl, 0.05%” for “0.005%”

Chain of UCHL1 (P09936 whole entry): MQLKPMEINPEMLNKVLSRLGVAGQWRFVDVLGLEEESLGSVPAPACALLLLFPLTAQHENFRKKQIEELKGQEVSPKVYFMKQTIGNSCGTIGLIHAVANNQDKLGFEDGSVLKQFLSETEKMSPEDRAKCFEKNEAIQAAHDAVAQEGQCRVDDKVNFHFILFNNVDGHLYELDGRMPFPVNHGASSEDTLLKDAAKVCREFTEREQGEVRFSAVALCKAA
Chain of USP30 (Q70CQ3 57-517): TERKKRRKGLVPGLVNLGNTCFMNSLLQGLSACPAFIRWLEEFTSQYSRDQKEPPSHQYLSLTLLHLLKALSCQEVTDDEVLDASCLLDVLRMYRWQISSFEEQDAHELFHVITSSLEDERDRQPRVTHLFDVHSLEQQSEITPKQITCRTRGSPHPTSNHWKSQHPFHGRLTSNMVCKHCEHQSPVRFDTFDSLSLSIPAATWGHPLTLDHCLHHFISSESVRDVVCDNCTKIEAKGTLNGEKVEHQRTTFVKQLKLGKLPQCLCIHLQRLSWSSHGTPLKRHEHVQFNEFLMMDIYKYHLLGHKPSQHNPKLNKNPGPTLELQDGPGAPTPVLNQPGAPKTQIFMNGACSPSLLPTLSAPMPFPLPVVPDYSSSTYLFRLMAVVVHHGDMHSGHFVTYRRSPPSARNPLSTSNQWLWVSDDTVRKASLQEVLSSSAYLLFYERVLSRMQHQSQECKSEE

Row | IC50 (USP30) | IC50 (UCHL1) | SMILES
1 | 10000 to 100000 nM | – | Cc1ccc(S(=O)(=O)N2CCO[C@@H]3CN(C#N)C[C@H]32)cc1 (racemic) [Example 22, rac-(4aR,7aR)-4-tosylhexahydropyrrolo[3,4-b][1,4]oxazine-6(2H)-carbonitrile]
2 | 100 to 1000 nM | – | Cc1ccc(CS(=O)(=O)N2CCO[C@H]3CN(C#N)C[C@H]32)cc1 (racemic) [Example 23, rac-(4aR,7aS)-4-(4-methylbenzyl)sulfonyl)hexahydropyrrolo[3,4-b][1,4]oxazine-6(2H)-carbonitrile]
3 | 100 to 1000 nM | 10000 to 100000 nM | N#CN1CCC(NS(=O)(=O)c2ccccc2-c2ccccc2)C1 (stereo not shown) [Example 1, N-(1-cyanopyrrolidin-3-yl)-[1,1′-biphenyl]-2-sulfonamide]
4 | 100 to 1000 nM | 1000 to 10000 nM | N#CN1CCC(NS(=O)(=O)c2ccc(-c3ccccc3)cc2)C1 (stereo not shown) [Example 2, N-(1-cyanopyrrolidin-3-yl)-[1,1′-biphenyl]-4-sulfonamide]
5 | 100 to 1000 nM | 10000 to 100000 nM | N#CN1CC[C@@H](NS(=O)(=O)c2ccc(-c3ccccc3)cc2)C1 [Example 3, (R)-N-(1-cyanopyrrolidin-3-yl)-[1,1′-biphenyl]-4-sulfonamide]
6 | 100 to 1000 nM | 1000 to 10000 nM | N#CN1CC[C@H](NS(=O)(=O)c2ccc(-c3ccccc3)cc2)C1 [Example 4, (S)-N-(1-cyanopyrrolidin-3-yl)-[1,1′-biphenyl]-4-sulfonamide]
7 | – | 10000 to 100000 nM | N#CN1CCC(NS(=O)(=O)c2ccccc2)C1 (stereo not shown) [Example 5, N-(1-cyanopyrrolidin-3-yl)benzenesulfonamide]
8 | 1000 to 10000 nM | 10000 to 100000 nM | N#CN1CC[C@H](NS(=O)(=O)c2ccccc2)C1 [Example 6, (S)-N-(1-cyanopyrrolidin-3-yl)benzenesulfonamide]
9 | 1000 to 10000 nM | – | N#CN1CC[C@@H](NS(=O)(=O)c2ccccc2)C1 [Example 7, (R)-N-(1-cyanopyrrolidin-3-yl)benzenesulfonamide]
10 | 100 to 1000 nM | 1000 to 10000 nM | N#CN1CCC(NS(=O)(=O)c2ccc(-c3cncnc3)cc2)C1 (stereo not shown) [Example 9, N-(1-cyanopyrrolidin-3-yl)-4-(pyrimidin-5-yl)benzenesulfonamide]
11 | 1000 to 10000 nM | – | CN1CCN(c2ccc(S(=O)(=O)NC3CCN(C#N)C3)cc2)CC1 (stereo not shown) [Example 10, N-(1-cyanopyrrolidin-3-yl)-4-(4-methylpiperazin-1-yl)benzenesulfonamide]
12 | 100 to 1000 nM | 10000 to 100000 nM | N#CN1CCC(NS(=O)(=O)c2ccc(-c3ccccc3)cn2)C1 (stereo not shown) [Example 11, N-(1-cyanopyrrolidin-3-yl)-5-phenylpyridine-2-sulfonamide]
13 | – | 1000 to 10000 nM | N#CN1CCC(NS(=O)(=O)c2ccc(-c3ccc(F)cc3)cc2)C1 (stereo not shown) [Example 12, N-(1-cyanopyrrolidin-3-yl)-4′-fluoro-[1,1′-biphenyl]-4-sulfonamide]
14 | 100 to 1000 nM | 1000 to 10000 nM | N#CN1CCC(NS(=O)(=O)c2ccc(-c3ccncc3)cc2)C1 (stereo not shown) [Example 13, N-(1-cyanopyrrolidin-3-yl)-4-(pyridin-4-yl)benzenesulfonamide]
15 | 100 to 1000 nM | 10000 to 100000 nM | N#CN1CCC(NS(=O)(=O)c2ccc(N3CCCCC3)cc2)C1 (stereo not shown) [Example 14, N-(1-cyanopyrrolidin-3-yl)-4-(piperidin-1-yl)benzenesulfonamide]
16 | 100 to 1000 nM | 1000 to 10000 nM | Cn1cc(-c2ccc(S(=O)(=O)NC3CCN(C#N)C3)cc2)cn1 (stereo not shown) [Example 15, N-(1-cyanopyrrolidin-3-yl)-4-(1-methyl-1H-pyrazol-4-yl)benzenesulfonamide]

Row | IC50 (USP30) | IC50 (UCHL1) | SMILES
17 | 100 to 1000 nM | 10000 to 100000 nM | N#CN1CCC(NS(=O)(=O)c2ccc(Oc3ccccc3)nc2)C1 (stereo not shown) [Example 16, N-(1-cyanopyrrolidin-3-yl)-6-phenoxypyridine-3-sulfonamide]
18 | 1000 to 10000 nM | – | Cc1ccc(F)cc1S(=O)(=O)NC1CCN(C#N)C1 (stereo not shown) [Example 17, N-(1-cyanopyrrolidin-3-yl)-5-fluoro-2-methylbenzenesulfonamide]
19 | 1000 to 10000 nM | 10000 to 100000 nM | CC(C)c1ccc(S(=O)(=O)NC2CCN(C#N)C2)cc1 (stereo not shown) [Example 18, N-(1-cyanopyrrolidin-3-yl)-4-isopropylbenzenesulfonamide]
20 | 100 to 1000 nM | 100 to 1000 nM | N#CN1CCC(NS(=O)(=O)c2ccc(Oc3ccc(C(F)(F)F)cn3)cc2)C1 (stereo not shown) [Example 19, N-(1-cyanopyrrolidin-3-yl)-4-((5-(trifluoromethyl)pyridin-2-yl)oxy)benzenesulfonamide]
21 | 100 to 1000 nM | 1000 to 10000 nM | CN([C@@H]1CCN(C#N)C1)S(=O)(=O)c1ccc(-c2cccnc2)cc1 [Example 20, (R)—N-(1-cyanopyrrolidin-3-yl)-N-methyl-4-(pyridin-3-yl)benzenesulfonamide]
22 | 100 to 1000 nM | – | N#CN1C[C@H]2CCN(S(=O)(=O)c3ccc(-c4cccnc4)cc3)[C@H]2C1 [Example 21, (3aR,6aR)-1-((4-(pyridin-3-yl)phenyl)sulfonyl)hexahydropyrrolo[3,4-b]pyrrole-5(1H)-carbonitrile]
23 | 100 to 1000 nM | 10000 to 100000 nM | Cn1nccc1C(=O)Nc1ccc(S(=O)(=O)NC2CCN(C#N)C2)cn1 (stereo not shown) [Example 24, N-(5-(N-(1-cyanopyrrolidin-3-yl)sulfamoyl)pyridin-2-yl)-1-methyl-1H-pyrazole-5-carboxamide]
24 | 10000 to 100000 nM | – | N#CN1CCC(S(=O)(=O)N2CCN(c3ccc(F)cc3)CC2)C1 (stereo not shown) [Example 27, 3-((4-(4-fluorophenyl)piperazin-1-yl)sulfonyl)pyrrolidine-1-carbonitrile]
25 | 1000 to 10000 nM | – | N#CN1CCC(S(=O)(=O)N2CCN(c3ncccn3)CC2)C1 (stereo not shown) [Example 29, 3-((4-(pyrimidin-2-yl)piperazin-1-yl)sulfonyl)pyrrolidine-1-carbonitrile]
26 | < 100 nM | – | N#CN1CCC(S(=O)(=O)N2CCC(c3ccc(Cl)cc3)CC2)C1 (stereo not shown) [Example 30, 3-((4-(4-chlorophenyl)piperidin-1-yl)sulfonyl)pyrrolidine-1-carbonitrile]
27 | 100 to 1000 nM | – | N#CN1CCC(S(=O)(=O)N2CCC(Cc3ccccc3)CC2)C1 (stereo not shown) [Example 33, 3-((4-benzylpiperidin-1-yl)sulfonyl)pyrrolidine-1-carbonitrile]
28 | 100 to 1000 nM | – | N#CN1CCC(S(=O)(=O)N2CC(c3ccc(Cl)cc3)C2)C1 (stereo not shown) [Example 34, 3-((3-(4-chlorophenyl)azetidin-1-yl)sulfonyl)pyrrolidine-1-carbonitrile]
29 | 100 to 1000 nM | – | N#CN1CC[C@H](S(=O)(=O)N2CC(c3ccc(Cl)cc3)C2)C1 [Example 35, (S)-3-((3-(4-chlorophenyl)azetidin-1-yl)sulfonyl)pyrrolidine-1-carbonitrile]
30 | 100 to 1000 nM | – | N#CN1CC[C@@H](S(=O)(=O)N2CC(c3ccc(Cl)cc3)C2)C1 [Example 36, (R)-3-((3-(4-chlorophenyl)azetidin-1-yl)sulfonyl)pyrrolidine-1-carbonitrile]
31 | 10000 to 100000 nM | – | N#CN1CCC(S(=O)(=O)N2CC(Oc3ccccc3)C2)C1 (stereo not shown) [Example 37, 3-((3-phenoxyazetidin-1-yl)sulfonyl)pyrrolidine-1-carbonitrile]

Row | SMILES | IC50 (USP30) | IC50 (UCHL1)
32 | N#CN1CCC(NS(=O)(=O)c2ccc(OCc3ccccc3)cc2)C1 (stereo not shown) [Example 8] | 100 to 1000 nM | 1000 to 10000 nM
33 | N#CN1CCC(S(=O)(=O)N2CCN(c3ccccn3)CC2)C1 (stereo not shown) [Example 28] | 100 to 1000 nM | –
